# Reference: patent publication US20060210478A1, “Steady state perfusion methods” (priority 2005, published 2006)
# Legend:
# domestic pig [1] = conditions: pig with 80-90% LCX stenosis; 0.05 mmol/kg i.v.; 0.25 mg/kg/min adenosine; confirmed by fluorescent microspheres post-mortem
# Description: (§1) A domestic pig (approx 60 kg B.W.) is anesthetized and intubated. The animal undergoes surgical intervention to partially occlude the distal portion of the left circumflex coronary artery (LCX). A calibrated angioplasty balloon is delivered by catheter, guided by X-ray fluoroscopy, from the femoral artery to the heart. It is advanced into the Left Circumflex coronary artery and inflated to create the equivalent of an 80-90% stenosis. The balloon catheter will remain inflated and at a constant inflation pressure for the duration of the imaging procedure, to simulate a static lesion and stenosis in the coronary artery.
# The pig is then transported to the MRI suite and remains under general anesthesia and intubated for the duration of the imaging examination. Sufficient MRI scout scans to plan the myocardial imaging are aquired. 0.05 mmol/kg of MS-325 is administered as a single intraveneous injection. Enough time (ca. 10 minutes) for the agent to achieve equilibrium in the blood elapses before perfusion imaging.
# Perfusion imaging is performed using a gradient echo method in order to sensitize the MRI to the lowered T1 of the imaging agent (TR=5.0 ms, FA=12°). Three 10 mm short-axis slices are acquired, so that 16 of the 17 AHA/ACC myocardial segments can be visualized. […]
# domestic pig [2] = conditions: pig with 80-90% LCX stenosis, 0.05 mmol/kg i.v.
# Description: A domestic pig (approx 50 kg B.W.) is anesthetized and intubated. The animal undergoes surgical intervention to partially occlude the distal portion of the left circumflex coronary artery (LCX). A calibrated angioplasty balloon is delivered by catheter, guided by X-ray fluoroscopy, from the femoral artery to the heart. It is advanced into the left circumflex coronary artery and inflated to create the equivalent of an 80-90% stenosis. The balloon catheter will remain inflated and at a constant inflation pressure for the duration of the imaging procedure, to simulate a static lesion and stenosis in the coronary artery.
# The pig is then transported to the MRI suite and remains under general anesthesia and intubated for the duration of the imaging examination. Sufficient MRI scout scans to plan the myocardial imaging are acquired. Then 0.05 mmol/kg of MS-325 is administered as a single intraveneous injection. Enough time (ca. 10 minutes) for the agent to achieve equilibrium in the blood elapses before imaging commences.
# Perfusion imaging is performed using a saturation-recovery gradient echo methods in order to sensitize the MRI to the lowered T1 of the imaging agent. Three short-axis slices (7.5 mm, with 7.5 mm slice separations) are acquired, so that 16 of the 17 AHA/ACC myocardial segments can be visualized. […]
# domestic pig [3] = conditions: pig with 80-90% LCX stenosis; 0.05 mmol/kg i.v.; 0.25 mg/kg/min adenosine; confirmed by fluorescent microspheres post-mortem; remark: listed apart in the source
# Description: as §1
# The pig is then transported to the MRI suite and remains under general anesthesia and intubated for the duration of the imaging examination. Sufficient MRI scout scans to plan the myocardial imaging are aquired. […] Enough time (ca. 10 minutes) for the agent to achieve equilibrium in the blood elapses before perfusion imaging commences.
# Perfusion imaging is performed using a gradient echo method in order to sensitize the MRI to the lowered T1 of the imaging agent (TR=3.2 ms, FA=12°). Three short-axis 10 mm slices are acquired, so that 16 of the 17 AHA/ACC myocardial segments can be visualized. In this implementation, cardiac-triggering is employed to control heart motion and breathing is suspended to eliminate diaphragmatic motion. […]
smiles,measurement,setting,value
O=C([O-])CN(CCN(CC(=O)[O-])C[C@H](COP(=O)([O-])OC1CCC(c2ccccc2)(c2ccccc2)CC1)N(CC(=O)[O-])CC(=O)[O-])CC(=O)[O-].[Gd+3].[H+].[H+].[H+] [MS-325],Analysis of MR images during adenosine stress,domestic pig [1],a hypo-intense region in the myocardial wall
same,Corresponding image during stress,domestic pig [2]; after 5 minutes of 0.25 mg/kg/min adenosine infusion,a greater degree of negative contrast with the remaining myocardial wall
same,Analysis of MR images (perfusion imaging at rest),"domestic pig [2]; imaging ca. 10 minutes after injection, before adenosine",a suspicious hypo-intense region in the anterior wall of the left ventrical
same,Analysis of MR images during vasodilatory stress,domestic pig [3],a hypo-intense region in the wall of the left ventricle
